Consider 27 compounds from patent US10975056B2 (GlaxoSmithKline Intellectual Property Development Limited, priority 2016, dated 2021).

Several values for one entry are separate records, joined by “and”; a condition that tells them apart may be missing. Identical values can stand only once. Counter-ions that a name gives are not always drawn. Like-named read-outs stand apart in the source and are kept apart here.

The target of experiment [1] is DNMT1 (Homo sapiens, UniProt P26358). The experiment can be described thus: DNMT1 biochemical activity, breaklight assay and/or SPA assay.
DNMT1, sequence (P26358 whole entry, looked up): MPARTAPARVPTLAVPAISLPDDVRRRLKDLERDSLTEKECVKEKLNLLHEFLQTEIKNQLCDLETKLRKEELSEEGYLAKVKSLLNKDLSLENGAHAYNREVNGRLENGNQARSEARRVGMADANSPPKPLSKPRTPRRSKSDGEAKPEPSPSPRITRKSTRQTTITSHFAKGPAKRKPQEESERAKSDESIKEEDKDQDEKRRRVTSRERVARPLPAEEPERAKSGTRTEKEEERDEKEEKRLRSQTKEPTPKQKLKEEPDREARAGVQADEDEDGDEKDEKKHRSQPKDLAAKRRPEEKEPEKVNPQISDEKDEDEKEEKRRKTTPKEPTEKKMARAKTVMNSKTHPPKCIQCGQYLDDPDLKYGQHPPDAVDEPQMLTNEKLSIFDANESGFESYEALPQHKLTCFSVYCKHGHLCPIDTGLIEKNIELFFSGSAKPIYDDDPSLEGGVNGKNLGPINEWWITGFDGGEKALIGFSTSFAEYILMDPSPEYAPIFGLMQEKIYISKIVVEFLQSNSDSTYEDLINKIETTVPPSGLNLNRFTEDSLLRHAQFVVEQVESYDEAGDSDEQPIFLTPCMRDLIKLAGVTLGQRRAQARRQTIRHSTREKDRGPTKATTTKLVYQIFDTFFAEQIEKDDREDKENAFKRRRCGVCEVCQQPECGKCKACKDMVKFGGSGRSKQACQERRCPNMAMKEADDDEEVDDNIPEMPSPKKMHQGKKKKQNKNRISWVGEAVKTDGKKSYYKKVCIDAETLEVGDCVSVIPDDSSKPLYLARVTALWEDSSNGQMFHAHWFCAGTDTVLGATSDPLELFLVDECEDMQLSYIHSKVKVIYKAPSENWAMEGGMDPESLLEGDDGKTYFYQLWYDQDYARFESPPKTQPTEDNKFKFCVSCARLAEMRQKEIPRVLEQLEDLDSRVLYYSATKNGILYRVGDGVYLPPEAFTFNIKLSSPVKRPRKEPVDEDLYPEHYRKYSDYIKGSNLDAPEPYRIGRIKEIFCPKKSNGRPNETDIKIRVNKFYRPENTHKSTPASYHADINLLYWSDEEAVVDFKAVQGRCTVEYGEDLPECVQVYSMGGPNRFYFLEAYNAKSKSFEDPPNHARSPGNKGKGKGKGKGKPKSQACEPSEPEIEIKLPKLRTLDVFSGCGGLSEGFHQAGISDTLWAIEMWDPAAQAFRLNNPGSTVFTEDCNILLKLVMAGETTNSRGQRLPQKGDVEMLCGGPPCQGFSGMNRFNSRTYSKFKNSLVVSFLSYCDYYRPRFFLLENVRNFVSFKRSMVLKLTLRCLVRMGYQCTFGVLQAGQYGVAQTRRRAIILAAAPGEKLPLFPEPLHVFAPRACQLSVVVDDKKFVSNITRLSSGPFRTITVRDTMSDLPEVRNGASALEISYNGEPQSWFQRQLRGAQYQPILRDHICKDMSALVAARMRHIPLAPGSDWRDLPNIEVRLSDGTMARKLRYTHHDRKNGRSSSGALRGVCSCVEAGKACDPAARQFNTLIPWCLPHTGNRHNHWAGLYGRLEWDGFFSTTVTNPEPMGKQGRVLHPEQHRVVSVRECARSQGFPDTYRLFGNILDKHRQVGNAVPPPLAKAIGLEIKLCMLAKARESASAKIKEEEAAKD
The test system of experiment [2] is erythroid progenitor cells (EPCs). The experiment can be described thus: Fetal hemoglobin (HbF) ELISA in day 7 erythroid progenitor cells.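 On EPC ELISA (pEC50 category): for fetal hemoglobin induction normalized to vehicle-treated cells.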 It is filed as cell-based, human. Particulars: Homo sapiens, Erythroid progenitor cell, read-out: EPC ELISA (pEC50 category) (converted). In short, it runs like this:
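Read-out was OD450 from an HRP/TMB sandwich ELISA on lysates, normalized to DMSO-only control wells. Thawed day 7 EPCs from human marrow CD34+ cells had been treated for 5 days at 37° C with Compound A, 22 concentrations […].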

Setting [3] is: binned activity in either the breaklight or the SPA assay.
Setting [4] is: binned activity in either the breaklight or the SPA assay, read-out: DNMT1 BioChemical (pIC50 category) (converted).
The mark [5] stands for this setting: breaklight assay and/or SPA assay, repeated experimental runs, read-out: average pIC50 against DNMT1 (converted).

`CCc1c(C#N)c(S[C@@H](C(N)=O)c2ccccc2)nc(N(C)CCCO)c1C#N` [Example 695, (R)-2-((3,5-dicyano-4-ethyl-6-((3-hydroxypropyl)(methyl)amino)pyridin-2-yl)thio)-2-phenylacetamide]: in experiment [1] (setting [3]), the “DNMT1 BioChemical (pIC50 category)” value was “D (Category D: ≥6.5)”. For the same compound, in experiment [2] (HbF ELISA, day 7 EPCs, 5 days), the EC50 was 1 to 31.6 µM.
`CCc1c(C#N)c(SCc2ccc(CC(=O)O)cc2)nc(N2CCCN(C)CC2)c1C#N` [Example 72, 2-(4-(((3,5-Dicyano-4-ethyl-6-(4-methyl-1,4-diazepan-1-yl)pyridin-2-yl)thio)methyl)phenyl)acetic acid]: the IC50 is 1 to 31.6 µM in experiment [1] (setting [4]); ≥ 1 µM and 2 µM in experiment [1] (setting [5]). Also, the EC50 in experiment [2] (HbF ELISA, day 7 EPCs, 5 days) was over 31.6 µM.
On to `CCc1c(C#N)c(SCc2ccc(CS(C)(=O)=O)cc2)nc(N2CCCN(C)CC2)c1C#N` [Example 403, 4-Ethyl-2-(4-methyl-1,4-diazepan-1-yl)-6-(4-(methylsulfonylmethyl)benzylthio)pyridine-3,5-dicarbonitrile], for which the IC50 in experiment [1] (setting [4]) was 0.316 to 1 µM. Moreover, the EC50 in experiment [2] (HbF ELISA, day 7 EPCs, 5 days) is 0.316 to 1 µM.
On to `C[C@H](N)C(=O)NC1CCN(c2nc(SC(C(N)=O)c3ccccc3)c(C#N)c(C3CC3)c2C#N)CC1` (stereo partly drawn) [Example 655, (2S)-2-amino-N-(1-(6-((2-amino-2-oxo-1-phenylethyl)thio)-3,5-dicyano-4-cyclopropylpyridin-2-yl)piperidin-4-yl)propanamide], for which the “DNMT1 BioChemical (pIC50 category)” value in experiment [1] (setting [3]) is “D (Category D: ≥6.5)”. Besides, the EC50 in experiment [2] (HbF ELISA, day 7 EPCs, 5 days) was 0.316 to 1 µM.
As for `CCc1c(C#N)c(SCc2ccc(CO)cc2)nc(N2CCCN(C)CC2)c1C#N` [Example 85, 4-Ethyl-2-((4-(hydroxymethyl)benzyl)thio)-6-(4-methyl-1,4-diazepan-1-yl)pyridine-3,5-dicarbonitrile], the IC50 in experiment [1] (setting [4]) and in experiment [1] (setting [5]) was 0.316 to 1 µM in each case. In experiment [2] (HbF ELISA, day 7 EPCs, 5 days), the EC50 is 1 to 31.6 µM.
`CCc1c(C#N)c(SC(C(N)=O)c2ccccc2)nc(N2CCS(=O)(=O)CC2)c1C#N` (centres unmarked) [Example 166, 2-((3,5-Dicyano-6-(1,1-dioxidothiomorpholino)-4-ethylpyridin-2-yl)thio)-2-phenylacetamide]: the IC50 in experiment [1] (setting [4]) is 0.316 to 1 µM. Moreover, the EC50 in experiment [2] (HbF ELISA, day 7 EPCs, 5 days) was under 0.316 µM.
For the compound `CCc1c(C#N)c(SCc2ccc(CN3CCCC3=O)cc2)nc(N2CCCN(C)CC2)c1C#N` [Example 269, 4-Ethyl-2-(4-methyl-1,4-diazepan-1-yl)-6-((4-((2-oxopyrrolidin-1-yl)methyl)benzyl)thio)pyridine-3,5-dicarbonitrile], in experiment [1] (setting [4]), the IC50 is 1 to 31.6 µM. In addition, the EC50 in experiment [2] (HbF ELISA, day 7 EPCs, 5 days) is 1 to 31.6 µM.
Turning to `CCc1c(C#N)c(SCc2ccc(CNC(=O)CNC(=O)OC(C)(C)C)cc2)nc(N2CCCN(C)CC2)c1C#N` [Example 78, tert-Butyl (2-((4-(((3,5-dicyano-4-ethyl-6-(4-methyl-1,4-diazepan-1-yl)pyridin-2-yl)thio)methyl)benzyl)amino)-2-oxoethyl)carbamate], the IC50 is 0.316 to 1 µM in experiment [1] (setting [4]) and at least 1 µM in experiment [1] (setting [5]). Further, in experiment [2] (HbF ELISA, day 7 EPCs, 5 days), the EC50 is over 31.6 µM.
Turning to `CCC(=O)NCc1ccc(CSc2nc(N3CCCN(C)CC3)c(C#N)c(CC)c2C#N)cc1` [Example 87, N-(4-(((3,5-Dicyano-4-ethyl-6-(4-methyl-1,4-diazepan-1-yl)pyridin-2-yl)thio)methyl)benzyl)propionamide], the “DNMT1 BioChemical (pIC50 category)” value in experiment [1] (setting [3]) was “D (Category D: ≥6.5)”. Moreover, the EC50 in experiment [2] (HbF ELISA, day 7 EPCs, 5 days) is 0.316 to 1 µM.
For `CCc1c(C#N)c(SC(C(N)=O)c2ccc(C)cn2)nc(N2CCCN(C)CC2)c1C#N` (centres unmarked) [Example 205, 2-((3,5-Dicyano-4-ethyl-6-(4-methyl-1,4-diazepan-1-yl)pyridin-2-yl)thio)-2-(5-methylpyridin-2-yl)acetamide] the same measures were “D (Category D: ≥6.5)” and under 0.316 µM.
The like results for `CCc1c(C#N)c(S[C@@H](C(N)=O)c2ccccc2)nc(N2CC[C@H](N)[C@@H](F)C2)c1C#N` [Example 519, (R)-2-((6-((3S,4S)-4-amino-3-fluoropiperidin-1-yl)-3,5-dicyano-4-ethylpyridin-2-yl)thio)-2-phenylacetamide, Trifluoroacetic acid salt] were, in that order, “D (Category D: ≥6.5)” and under 0.316 µM.
On to `CCc1c(C#N)c(SC(C(N)=O)c2ccccc2)nc(N2CC[C@H](OP(=O)(O)O)C2)c1C#N` (stereo partly drawn) [Example 415, (3S)-1-(6-((2-amino-2-oxo-1-phenylethyl)thio-3,5-dicyano-4-ethylpyridin-2-yl) Pyrrolidin-3-yldihydrogen phosphate], for which, in experiment [1] (setting [4]), the IC50 is 1 to 31.6 µM. Further, in experiment [2], the EC50 is 1 to 31.6 µM.
In the case of `CCc1c(C#N)c(SC(C(N)=O)c2ccccc2)nc(N(C)CCN2CCCC2)c1C#N` (centres unmarked) [Example 511, 2-((3,5-dicyano-4-ethyl-6-(methyl(2-(pyrrolidin-1-yl)ethyl)amino)pyridin-2-yl)thio)-2-phenylacetamide], the “DNMT1 BioChemical (pIC50 category)” value in experiment [1] (setting [3]) is on record as “D (Category D: ≥6.5)”. The EC50 in experiment [2] (HbF ELISA, day 7 EPCs, 5 days) is under 0.316 µM.
With `CCc1c(C#N)c(S[C@H](C(N)=O)c2ccccc2)nc(N2CCC(C)(N)CC2)c1C#N` (single isomer, unassigned) [Example 608, 2-((6-(4-amino-4-methylpiperidin-1-yl)-3,5-dicyano-4-ethylpyridin-2-yl)thio)-2-phenylacetamide], the “DNMT1 BioChemical (pIC50 category)” value in experiment [1] (setting [3]) is on record as “D (Category D: ≥6.5)”. Also, in experiment [2] (HbF ELISA, day 7 EPCs, 5 days), the EC50 is under 0.316 µM.
Regarding `CCc1c(C#N)c(SC(C(N)=O)c2ccccc2)nc(N2CCC(F)(F)CC2)c1C#N` (centres unmarked) [Example 133, 2-((3,5-Dicyano-6-(4,4-difluoropiperidin-1-yl)-4-ethylpyridin-2-yl)thio)-2-phenylacetamide], the IC50 is 1 to 31.6 µM in experiment [1] (setting [4]) and at least 1 µM in experiment [1] (setting [5]). Also, in experiment [2] (HbF ELISA, day 7 EPCs, 5 days), the EC50 is 1 to 31.6 µM.
Take `CNc1c(C#N)c(SCc2ccc(CNC(C)=O)cc2)nc(N2CCCN(C)CC2)c1C#N` [Example 91, N-(4-(((3,5-Dicyano-6-(4-methyl-1,4-diazepan-1-yl)-4-(methylamino)pyridin-2-yl)thio)methyl)benzyl)acetamide]: in experiment [1] (setting [4]), the IC50 was 0.316 to 1 µM. For the same compound, the EC50 in experiment [2] (HbF ELISA, day 7 EPCs, 5 days) is 1 to 31.6 µM.
In the case of `CCc1c(C#N)c(SCc2ccc(S(N)(=O)=O)cc2)nc(N2CCC(N)CC2)c1C#N` [Example 345, 4-(((6-(4-Aminopiperidin-1-yl)-3,5-dicyano-4-ethylpyridin-2-yl)thio)methyl) benzenesulfonamide], the “DNMT1 BioChemical (pIC50 category)” value in experiment [1] (setting [3]) was “D (Category D: ≥6.5)”. Further, the EC50 in experiment [2] (HbF ELISA, day 7 EPCs, 5 days) was 1 to 31.6 µM.
The like results for `CCc1c(C#N)c(SC(C(N)=O)c2ccccc2)nc(N(C)CCNCC(C)(C)C)c1C#N` (centres unmarked) [Example 488, 2-((3,5-dicyano-4-ethyl-6-(methyl(2-(neopentylamino)ethyl)amino)pyridin-2-yl)thio)-2-phenylacetamide] were, in that order, “D (Category D: ≥6.5)” and under 0.316 µM.
For `CCc1c(C#N)c(SC(C(N)=O)c2ccccc2)nc(N(C)CCNC2(C)CC2)c1C#N` (centres unmarked) [Example 489, 2-(3,5-dicyano-4-ethyl-6-(methyl(2-(1-methylcyclopropylamino)ethyl)amino)pyridin-2-ylthio)-2-phenylacetamide] the same measures were “D (Category D: ≥6.5)” and under 0.316 µM.
Regarding `CN(C)c1nc(SC(C(N)=O)c2ccncc2)c(C#N)c(C2CC2)c1C#N` (centres unmarked) [Example 26, 2-((3,5-dicyano-4-cyclopropyl-6-(dimethylamino)pyridin-2-yl)thio)-2-(pyridin-4-yl)acetamide], the IC50 in experiment [1] (setting [4]) was 0.316 to 1 µM. Further, in experiment [2] (HbF ELISA, day 7 EPCs, 5 days), the EC50 is over 31.6 µM.
Consider `CCc1c(C#N)c(SC(C(N)=O)c2ccccc2)nc(N(C)CC(=O)NOC)c1C#N` (centres unmarked) [Example 663, 2-((6-((2-amino-2-oxo-1-phenylethyl)thio)-3,5-dicyano-4-ethylpyridin-2-yl)(methyl)amino)-N-methoxyacetamide], for which, in experiment [1] (setting [3]), the “DNMT1 BioChemical (pIC50 category)” value is recorded as “D (Category D: ≥6.5)”. In addition, the EC50 in experiment [2] (HbF ELISA, day 7 EPCs, 5 days) is under 0.316 µM.
For `CCc1c(C#N)c(SCc2ccc(CNC(C)=O)cc2)nc(N2CCNC(=O)C2)c1C#N` [Example 329], the IC50 in experiment [1] (setting [4]) was 0.316 to 1 µM. Also, in experiment [2] (HbF ELISA, day 7 EPCs, 5 days), the EC50 was 1 to 31.6 µM.
For `CCc1c(C#N)c(SC(C(N)=O)c2ccccc2)nc(N2CCC(N3CCC(N)C3=O)CC2)c1C#N` (centres unmarked) [Example 270], in experiment [1] (setting [3]), the “DNMT1 BioChemical (pIC50 category)” value is “D (Category D: ≥6.5)”. The EC50 in experiment [2] (HbF ELISA, day 7 EPCs, 5 days) was 1 to 31.6 µM.
For the compound `CCc1c(C#N)c(SC(C(N)=O)c2ccccc2)nc(N2CCC(O)(CO)CC2)c1C#N` (centres unmarked) [Example 240, 2-((3,5-Dicyano-4-ethyl-6-(4-hydroxy-4-(hydroxymethyl)piperidin-1-yl)pyridin-2-yl)thio)-2-phenylacetamide], the IC50 in experiment [1] (setting [4]) was 0.316 to 1 µM. The EC50 in experiment [2] (HbF ELISA, day 7 EPCs, 5 days) was 1 to 31.6 µM.
On to `CCc1c(C#N)c(SCc2ccc(N(C)S(=O)(=O)C(F)F)cc2)nc(N2CCCN(C)CC2)c1C#N` [Example 602, N-(4-(((3,5-dicyano-4-ethyl-6-(4-methyl-1,4-diazepan-1-yl)pyridin-2-yl)thio)methyl)phenyl)-1,1-difluoro-N-methylmethanesulfonamide], for which the IC50 was 0.316 to 1 µM in experiment [1] (setting [4]); 0.316 to 1 µM and 0.501 µM in experiment [1] (setting [5]). In addition, the EC50 in experiment [2] (HbF ELISA, day 7 EPCs, 5 days) is under 0.316 µM.
As for `CCc1c(C#N)c(SCc2ccc(CNCCO)cc2)nc(N2CCCN(C)CC2)c1C#N` [Example 90, 4-Ethyl-2-((4-(((2-hydroxyethyl)amino)methyl)benzyl)thio)-6-(4-methyl-1,4-diazepan-1-yl)pyridine-3,5-dicarbonitrile], the IC50 in experiment [1] (setting [4]) was 0.316 to 1 µM. For the same compound, in experiment [2] (HbF ELISA, day 7 EPCs, 5 days), the EC50 was over 31.6 µM.
For `CCc1c(C#N)c(SC(C(N)=O)c2ccccc2)nc(N2CCCN(C)CC2)c1C#N` (single isomer, unassigned; isomer 1) [Example 254, 2-((3,5-dicyano-4-ethyl-6-(4-methyl-1,4-diazepan-1-yl)pyridin-2-yl)thio)-2-phenylacetamide (Isomer 1)] the same measures were under 0.316 µM and 0.316 to 1 µM.
